Test results taken from patent US10844049B2, “GLP-1R agonists and uses thereof” (QILU REGOR THERAPEUTICS INC., priority 2018, dated 2020).

Target: GLP1R (Homo sapiens, UniProt P43220)
Test: GLP1R cAMP HTRF assay, HEK293/GLP-1R/CRE/Luc (HEK293T cells)
Type: cell-based
Settings: read-out: EC50
Method: GLP-1R-mediated agonist activity was determined with a cell-based functional assay utilizing an HTRF (Homogeneous Time-Resolved Fluorescence) cAMP detection kit (cAMP Dynamic 2 Assay Kit; CisBio cat #62AM4PEC) that measures cAMP levels in the cell. The method is a competitive immunoassay between native cAMP produced by the cells and exogenous cAMP labeled with the dye d2. The tracer binding is visualized by a mAb anti-cAMP labeled with Cryptate. The specific signal (i.e., energy transfer) is inversely proportional to the concentration of cAMP in either standard or experimental sample.
A cell line stably expressing the receptor was isolated.
Varying concentrations of each compound to be tested (in DMSO) were diluted in DMSO to obtain 200× compound working solution first and then 50 nl compounds were added to a white 384-well assay plate (Greiner 784075) with ECHO. The final DMSO concentration was 0.5%. The compound concentration range may be adjusted at any time.
Cells were removed from cryopreservation, re-suspended in 5 mL of Dulbecco's Phosphate Buffered Saline (DPBS-Sigma Cat # D8537) and centrifuged at 900 g for 5 min at 22° C. The cell pellet was then re-suspended in 1 mL of assay buffer [DPBS with 500 μM IBMX (Sigma #15879) and 0.1% BSA (Sigma # A1933). IBMX and BSA were freshly added on the day of assay]. A 10 μL sample of the cell suspension was counted on an Invitrogen Countess II to determine cell viability and cell count per mL. The remaining cell suspension was then adjusted with assay buffer to deliver 1000 viable cells per well using a Matrix Combi Multidrop reagent dispenser. 10 μL cell suspensions were added to each well of the assay plate which already contains compound. The plate was sealed and incubated at 37° C. with 5% CO2 for 30 minutes.
Following the 30 minute incubation, 5 μL of labeled d2 cAMP and 5 μL of anti-cAMP antibody (both diluted 1:20 in cell lysis buffer; as described in the manufacturer's assay protocol) were added to each well of the assay plate. The plates w ere then incubated at room temperature and after 60 minutes, changes in the HTRF signal were read with an Envision multi-label plate reader using excitation of 330 nm and emissions of 615 and 665 nm. Raw data were converted to nM cAMP by interpolation from a cAMP standard curve (as described in the manufacturer's assay protocol) and the percent effect was determined relative to a saturating concentration of the full agonist GLP-17-37 (10 nM) included on each plate. EC50 determinations were made from agonist dose-response curves analyzed with a curve fitting program using a 4-parameter logistic dose response equation.
3) Anti-cAMP antibody-cryptate working solution preparation • c) The lyophilisate was reconstituted with appropriate amount of distilled water according to manufacturer's instruction to make working stock which can be aliquoted and frozen (−20° C.). • d) The working stock solution was diluted 1:20 in the conjugate and lysis buffer before use. Procedures Procedures for Cell Suspension Preparation • 1. Frozen cells were thawed very briefly in a 37° C. water bath under sterile conditions until just before ice completely melt (for about 1 minute) with a continuous agitation. Caution was taken because a longer incubation could result in cell death. • 2. DMSO was removed from the media by carefully transferring thawed cells to a sterile 15/50 mL tube, filling a tube with 10-50 mL of complete media pre-warmed to 37° C., and allowing the cells to sit 5 min before centrifuging at 900 rpm for 5 minutes for cell collection. • 3. The cells were resuspended with assay buffer. • 4. For stable GLP1-R assay, the optimized cell density is 1000 cells/well. Caution was taken because cell density optimization was crucial and needed to be optimized in different laboratories. The level of cAMP produced by the cells must fall within the linear range of the standard curve.

Chain of GLP1R (P43220 24-463): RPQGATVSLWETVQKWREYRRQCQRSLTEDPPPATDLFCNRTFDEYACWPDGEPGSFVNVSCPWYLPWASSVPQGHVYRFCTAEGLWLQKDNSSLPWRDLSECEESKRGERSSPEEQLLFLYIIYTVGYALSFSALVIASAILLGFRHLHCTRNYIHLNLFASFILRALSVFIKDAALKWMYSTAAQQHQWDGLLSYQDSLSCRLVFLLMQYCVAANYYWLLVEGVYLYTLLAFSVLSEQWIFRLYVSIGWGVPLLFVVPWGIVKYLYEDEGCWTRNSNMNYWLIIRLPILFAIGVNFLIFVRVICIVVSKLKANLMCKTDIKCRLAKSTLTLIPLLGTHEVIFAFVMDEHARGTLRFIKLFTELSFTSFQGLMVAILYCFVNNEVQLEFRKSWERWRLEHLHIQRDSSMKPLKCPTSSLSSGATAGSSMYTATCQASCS

EC50 [nM] | Compound
≤ 150 | O=C(O)c1ccc2nc(CN3CCCN(c4cccc(OCc5ccc(Cl)cc5F)n4)CC3)n(C[C@@H]3CCO3)c2c1 [Compound 15, (S)-2-((4-(6-(4-chloro-2-fluorobenzyloxy)pyridin-2-yl)-1,4-diazepan-1-yl)methyl)-1-(oxetan-2-ylmethyl)-1 h-benzo[d]imidazole-6-carboxylic acid]
≤ 15 | CC#Cc1ccc(COc2cccc(C3=CCN(Cc4nc5ccc(C(=O)O)cc5n4C[C@@H]4CCO4)CC3)n2)c(F)c1 [Compound 107, (S)-2-((6-((2-fluoro-4-(prop-1-yn-1-yl)benzyl)oxy)-3′,6′-dihydro-[2,4′-pyridin]-1′(2′H)-yl)methyl)-1-(oxetan-2-ylmethyl)-1H-benzo[d]imidazole-6-carboxylic acid]
> 1000 | N#Cc1ccc2nc(CN3CC=C(c4cccc(OCc5ccc(Cl)cc5F)n4)CC3)n(C[C@@H]3CCO3)c2c1 [Compound 71, (S)-2-((4-(6-(4-chloro-2-fluorobenzyloxy)pyridin-2-yl)-5,6-dihydropyridin-1(2H)-yl)methyl)-1-(oxetan-2-ylmethyl)-1H-benzo[d]imidazole-6-carbonitrile]
≤ 1000 | O=C(O)c1ccc2nc(CN3CCN(c4cc5ccccc5c(OCc5ccc(Cl)cc5F)n4)CC3)n(C[C@@H]3CCO3)c2c1 [Compound 36, (S)-2-((4-(1-((4-chloro-2-fluorobenzyl)oxy)isoquinolin-3-yl)piperazin-1-yl)methyl)-1-(oxetan-2-ylmethyl)-1 h-benzo[d]imidazole-6-carboxylic acid]
≤ 150 | O=C(O)c1ccc2nc(CN3CCN(c4cccc(OCc5ccc(C(F)(F)F)cc5)c4)CC3)n(C[C@@H]3CCO3)c2c1 [Compound 189]
≤ 15 | N#Cc1ccc(COc2cccc(N3CCC(Cc4nc5ccc(C(=O)O)cc5n4C[C@@H]4CCO4)CC3)n2)c(F)c1 [Compound 226, (S)-2-((l-(6-((4-cyano-2-fluorobenzyl)oxy)pyridin-2-yl)piperidin-4-yl)methyl)-1-(oxetan-2-ylmethyl)-1H-benzo[d]imidazole-6-carboxylic acid]
≤ 150 | O=C(O)c1ccc2nc(CN3CCN(c4ccc(F)c(OCc5ccc(C#CC6CC6)cc5F)c4)CC3)n(C[C@@H]3CCO3)c2c1 [Compound 196, (S)-2-((4-(3-((4-(cyclopropylethynyl)-2-fluorobenzyl)oxy)-4-fluorophenyl)piperazin-1-yl)methyl)-1-(oxetan-2-ylmethyl)-1H-benzo[d]imidazole-6-carboxylic add]
≤ 1000 | O=C(O)c1ccc2nc(CN3CC=C(c4cccc(OC5CCCc6cc(Cl)ccc65)n4)CC3)n(C[C@@H]3CCO3)c2c1 (stereo partly drawn) [Compound 60, 2-((6-((6-chloro-1,2,3,4-tetrahydronaphthalen-1-yl)oxy)-3′,6′-dihydro-[2,4′-bipyridin]-1′(2′H)-yl)methyl)-1-(((S)-oxetan-2-yl)methyl)-1H-benzo[d]imidazole-6-carboxylic acid]
≤ 15 | O=C(O)c1ccc2nc(CN3CCN(c4ncc(F)c(OCc5ccc(Cl)cc5F)n4)CC3)n(C[C@@H]3CCO3)c2c1 [Compound 180, (S)-2-((4-(4-(4-chloro-2-fluorobenzyloxy)-5-fluoropyrimidin-2-yl)piperazin-1-yl)methyl)-1-(oxetan-2-ylmethyl)-1H-benzo[d]imidazole-6-carboxylic add]
≤ 15 | O=C(O)c1ccc2nc(CN3CC=C(c4cccc(OCc5ccc(F)c(F)c5)n4)CC3)n(C[C@@H]3CCO3)c2c1 [Compound 145, (S)-2-((6((3,4-difluorobenzyl)oxy)-3′,6′-dihydro-[2,4′-bipyridin]-1′(2′H)-yl)methyl)-1-(oxetan-2-ylmethyl)-1H-benzo[d]imidazole-6-carboxylic acid]
≤ 1000 | O=C(O)c1ccc2nc(CN3CC=C(c4ccnc(NCc5ccc(Cl)cc5F)c4)CC3)n(C[C@@H]3CCO3)c2c1 [Compound 130, (S)-2-((2′-((4-chloro-2-fluorobenzyl)amino)-3,6-dihydro-[4,4′-bipyridin]-1(2H)-yl)methyl)-1-(oxetan-2-ylmethyl)-1H-benzo[d]imidazole-6-carboxylic add]
> 1000 | O=C(O)c1ccc2nc(CN3CC=C(c4ccc5c(n4)N(CCc4cccc(Cl)c4)CCO5)CC3)n(C[C@@H]3CCO3)c2c1 [Compound 37, (S)-2-((4-(4-(3-chlorophenethyl)-3,4-dihydro-2 h-pyrido[3,2-b][1,4]oxazin-6-yl)-5,6-dihydropyridin-1(2H)-yl)methyl)-1-(oxetan-2-ylmethyl)-1 h-benzo[d]imidazole-6-carboxylic acid]

Continued, compound first:

Compound | EC50 [nM]
(S)-2-((4-(2-((4-(cyclopropylethynyl)-2-fluorobenzyl)oxy)pyrimidin-4-yl)piperazin-1-yl)methyl)-1-(oxetan-2-ylmethyl)-1H-benzo[d]imidazole-6-carboxylic add [Compound 194] | ≤ 150
CC(C)(C)c1ccc(COc2cccc(C3=CCN(Cc4nc5ccc(C(=O)O)cc5n4C[C@@H]4CCO4)CC3)n2)cc1 [Compound 147, (S)-2-((6-((4-(tert-butyl)benzyl)oxy)-5′,6′-dihydro-[2,4′-bipyridin]-1′(2H)-yl)methyl)-1-(oxetan-2-ylmethyl)-1H-benzo[d]imidazole-6-carboxylic add] | ≤ 1000
O=C(O)c1ccc2nc(CN3CC=C(c4cc(OCc5ccc(Cl)cc5F)c(F)cc4F)CC3)n(C[C@@H]3CCO3)c2c1 [Compound 132, (S)-2-((4-(5-((4-chloro-2-fluorobenzyl)oxy)-2H-difluorophenyl)-3,6-dihydropyridin-1(2H)-yl)methyl)-1-(oxetan-2-ylmethyl)-1H-benzo[d]imidazole-6-carboxylic acid] | ≤ 1000
O=C(O)c1ccc2nc(CN3CCN(c4ccc5ccn(Cc6ccc(Cl)cc6F)c5n4)CC3)n(C[C@@H]3CCO3)c2c1 [Compound 13, (S)-2-((4-(1-(4-chloro-2-fluorobenzyl)-1 h-pyrrolo[2,3-b]pyridin-6-yl)piperazin-1-yl)methyl)-1-(oxetan-2-ylmethyl)-1 h-benzo[d]imidazole-6-carboxylic add] | ≤ 150
O=C(O)c1ccc2nc(CN3CC=C(c4cc(F)cc(OCc5ccc(Cl)cc5F)c4)CC3)n(C[C@@H]3CCO3)c2c1 [Compound 42, (S)-2-((4-(3-((4-chloro-2-fluorobenzyl)oxy)-5-fluorophenyl)-3,6-dihydropyridin-1(2H)-yl)methyl)-1-(oxetan-2-ylmethyl)-1 h-benzo[d]imidazole-6-carboxylic acid] | ≤ 15
O=C(O)c1ccc2nc(CN3CC=C(c4cccc(OCc5ccccc5)n4)CC3)n(C[C@@H]3CCO3)c2c1 [Compound 73, (S)-2-((6-(benzyloxy)-5′,6′-dihydro-[2,4′-bipyridin]-1′(2′H)-yl)methyl)-1-(oxetan-2-ylmethyl)-1H-benzo[d]imidazole-6-carboxylic add] | ≤ 150
O=C(O)c1ccc2nc(CN3CC=C(c4cccc(OCc5cc(Cl)cc(Cl)c5)n4)CC3)n(C[C@@H]3CCO3)c2c1 [Compound 139, (S)-2-((6-((3,5-dichlorobenzyl)oxy)-3′,6′-dihydro-[2,4′-bipyridin]-1′(2′H)-yl)methyl)-1-(oxetan-2-ylmethyl)-1H-benzo[d]imidazole-6-carboxylic acid] | ≤ 150
CC(Oc1cccc(C2=CCN(Cc3nc4ccc(C(=O)O)cc4n3C[C@@H]3CCO3)CC2)n1)c1ccc(Cl)cc1F (stereo partly drawn) [Compound 70] | ≤ 15
O=C(O)c1ccc2nc(CN3CC=C(c4ccc5ccn(Cc6ccc(Cl)cc6F)c5c4)CC3)n(C[C@@H]3CCO3)c2c1 [Compound 27, (S)-2-((4-(1-(4-chloro-2-fluorobenzyl)-1 h-indol-6-yl)-5,6-dihydropyridin-1(2H)-yl)methyl)-1-(oxetan-2-ylmethyl)-1 h-benzo[d]imidazole-6-carboxylic add] | > 1000
